Where two headings read alike, the source gives them in different places.
How the values were obtained:
[1] = tested on: two normal (HEK293, EUFA30) and two cancerous (HeLa, U87) cell lines; assay: Cytotoxicity assay (Alamar Blue), statements over all four cell lines; assay type: cell-based, human; details: concentrations tested: 1–200 µM
Description: (§1) Following cell lines: HeLa, U87, HEK293, EUFA30 were cultured in DMEM medium (Life Technology, Carlsbad, CA, USA) with 10% fetal bovine serum (Thermo Fisher Scientific, Waltham, MA, USA) and 0.1% antibiotics (penicillin, streptomycin, Life Technology, Carlsbad, CA, USA). Cells were grown in atmosphere of 5 and 95% CO2 and air, respectively, at 37 °C.
(§2) Exponentially growing cells at the density of 2 × 10^3 cells/well were seeded onto a 96-well plate, cultured for 18 h, and treated with newly synthesized compounds at concentrations 1–200 µM, or with DMSO as a control, for 24 or 48 h. Alamar Blue (Thermo Fisher Scientific, Waltham, MA, USA) was added accordingly to manufacturer protocol. After 4 h, light emission at 590 nm was measured with excitation at 560 nm using a scanning multiwell spectrophotometer (DTX 880, Beckman Coulter, Brea, CA, USA). The experiments were repeated at least three times with three replicates for each inhibitor concentration. After background subtraction, inhibition rates, IC50, were calculated as the component concentration inhibiting cell growth by 50%. All the calculations were performed using Origin 9.0 software.

HeLa [2] = assay: Cytotoxicity assay (Alamar Blue), HeLa cells; assay type: cell-based; details: Homo sapiens, read-out: IC50 based on the survival of cells
Description: as §1, §2

HEK293 [3] = assay: Flow cytometry apoptosis detection (Annexin V-FITC / propidium iodide), HEK293; assay type: cell-based, human; details: HEK293, 200 µM; for cells in necrosis: control cells 20%; for cells in early apoptosis: control cells 1.3%
Description: as §1
(§3) The apoptosis detection kit (Annexin V-FITC BD Biosciences, Franklin Lakes, NJ, USA) was used to detect apoptosis by flow cytometry. Cells were seeded in 6-well plates at concentration of 5 × 10^5 cells/well, cultured for 18 h, and tested compound was applied for indicated time. Afterwards, cells were washed with PBS, resuspended in binding buffer at concentration of 2 × 10^6 cells/mL. The anti-Annexin V FITC-conjugated antibody and propidium iodide were added to 100 µl aliquots. Then, mixtures were incubated for 15 min at room temperature, supplemented with binding buffer to 500 µl and processed by BD FACSCalibur (BD Biosciences, Franklin Lakes, NJ, USA). Data were analyzed in Flowing Software version 2.5.1 (Flowing Software, http://www.uskonaskel.fi/flowingsoftware).

HEK293 [4] = assay: Cytotoxicity assay (Alamar Blue), HEK293 cells; assay type: cell-based, human; details: read-out: IC50 based on the survival of cells
Description: as §1, §2

U87 [5] = assay: Flow cytometry apoptosis detection (Annexin V-FITC / propidium iodide), U87; assay type: cell-based, human; details: U87, 200 µM; for cells in late apoptosis: control 1.6%; for cells in necrotic phase: 48 h, control 17%; for cells in necrosis: control 8.6%
Description: as §1, §3

EUFA30 = assay: Cytotoxicity assay (Alamar Blue), EUFA30 cells; assay type: cell-based; details: Homo sapiens, read-out: IC50 based on the survival of cells
Description: as §1, §2

U87 [6] = assay: Cytotoxicity assay (Alamar Blue), U87 cells; assay type: cell-based, human; details: read-out: IC50 based on the survival of cells
Description: as §1, §2

HeLa [7] = assay: Flow cytometry apoptosis detection (Annexin V-FITC / propidium iodide), HeLa; assay type: cell-based, human; details: 200 µM
Description: as §1, §3

[8] = Homo sapiens, HEK293, 24 h, HEK293, 24 h of treatment
[9] = Homo sapiens, HEK293, 48 h, HEK293, 48 h of treatment
[10] = Homo sapiens, U-87 MG, 24 h, U87, 24 h of treatment
[11] = Homo sapiens, U-87 MG, 48 h, U87, 48 h of treatment

In the case of `O=C1Nc2ccc(Br)cc2C(=O)Nc2ccccc21` [Compound 10b, 2-Bromodibenzo[b,f][1,5]diazocine-6,12(5H,11H)-dione], the melting point is reported as 283 to 284 °C, the “cytotoxic effect (in words)” value [1] is reported as “showed a cytotoxic effect while maintaining the selectivity of action” and the IC50 (HeLa [2]; 24 h of treatment) is reported as 97.3 ± 13.7 µM.
In the case of `CN1C(=O)c2cc([N+](=O)[O-])ccc2NC(=O)c2ccccc21` [Compound 10f, 11-Methyl-2-nitrodibenzo[b,f][1,5]diazocine-6,12(5H,11H)-dione], the melting point is reported as 225 to 226 °C, the “cytotoxic effect (in words)” value [1] is reported as “showed a cytotoxic effect while maintaining the selectivity of action” and the “cells in late apoptosis” value (HEK293 [3]; 24 h, control cells 0.4%) is reported as 0.5%. For the same molecule, the cells in necrosis (HEK293 [3]; 24 h) was 39%, the “cells in late apoptosis” value (HEK293 [3]; 48 h, control cells 0.5%) was 3% and the “cells in early apoptosis” value (HEK293 [3]; 48 h) was 6.6%. The IC50 (HeLa [2]; 24 h of treatment) was 206 ± 12.8 µM.
In the case of `CN1C(=O)c2ccccc2NC(=O)c2ccccc21` [Compound 10d, 5-Methyldibenzo[b,f][1,5]diazocine-6,12(5H,11H)-dione], the melting point is reported as 258 to 259 °C.
In the case of `O=C1Nc2ccc(Cl)cc2C(=O)Nc2ccccc21` [Compound 10a, 2-Chlorodibenzo[b,f][1,5]diazocine-6,12(5H,11H)-dione], the melting point is reported as 275 to 276 °C and the “cytotoxic effect (in words)” value [1] is reported as “no cytotoxic effect in the concentration range tested”.
With `CN1C(=O)c2cc(Br)ccc2NC(=O)c2ccccc21` [Compound 10e, 2-Bromo-11-methyldibenzo[b,f][1,5]diazocine-6,12(5H,11H)-dione] the melting point was 247 to 248 °C and the IC50 (HeLa [2]; 24 h of treatment) was > 200 µM.
Work on `CC(=O)N1C(=O)c2ccccc2N(C)C(=O)c2ccccc21` [Compound 10o, 5-acetyl-11-methyldibenzo[b,f][1,5]diazocine-6,12(5H,11H)-dione] yielded a melting point of 193 to 194 °C.
`CN1C(=O)c2cc(Br)ccc2N(Cc2cccc3ccccc23)C(=O)c2ccccc21` [Compound 10k, 2-Bromo-11-methyl-5-(naphthalen-1-ylmethyl)dibenzo[b,f][1,5]diazocine-6,12(5H,11H)-dione] gave an IC50 (HEK293 [4]; [8]) of 119 ± 7.1 µM, an IC50 (HEK293 [4]; [9]) of 138 ± 12 µM and a melting point of 255 to 256 °C. The “changes in the apoptosis/necrosis phases in relation to control” value (“changes in the apoptosis/necrosis phases” below) (HEK293 [3]; 24 and 48 h) was “did not observe any changes in the apoptosis/necrosis phases in relation to control”, the “changes in the apoptosis/necrosis phases” value (U87 [5]; 24 and 48 h) was “did not observe any changes in the apoptosis/necrosis phases in relation to control” and the IC50 (EUFA30; Eufa30, 24 h of treatment) was 87.6 ± 8.1 µM. It also gave an IC50 (EUFA30; Eufa30, 48 h of treatment) of 74.4 ± 6.7 µM, an IC50 (U87 [6]; [10]) of 75.4 ± 8.7 µM and an IC50 (U87 [6]; [11]) of 197 ± 9.4 µM. For the same molecule, the “changes in the apoptosis/necrosis phases” value (HeLa [7]; 24 and 48 h) was “did not observe any changes in the apoptosis/necrosis phases in relation to control”, the IC50 (HeLa [2]; 24 h of treatment) was 75.3 ± 1.6 µM and the IC50 (HeLa [2]; 48 h of treatment) was 124 ± 5.4 µM.
For `CN1C(=O)c2cc3ccccc3cc2NC(=O)c2cc(Cl)ccc21` [Compound 10h, 2-Chloro-5-methylbenzo[b]naphtho[2,3-f][1,5]diazocine-6,14(5H,13H)-dione], the IC50 (HEK293 [4]; [8]) was > 200 µM, the melting point was 270 to 271 °C and the “cytotoxic effect (in words)” value [1] was “showed a cytotoxic effect while maintaining the selectivity of action”. For the same molecule, the “cells in late apoptosis” value (HEK293 [3]; 24 h, control cells 0.4%) was 3%, the cells in necrosis (HEK293 [3]; 24 h) was 32% and the “cells in late apoptosis” value (HEK293 [3]; 48 h, control cells 0.5%) was 3.2%. The “cells in early apoptosis” value (HEK293 [3]; 48 h) was 3.8%, the “cells in early apoptosis” value (U87 [5]; 24 h, control 1.2%) was 4.1% and the “cells in late apoptosis” value (U87 [5]; 24 h) was 6.9%. The “cells in necrotic phase” value (U87 [5]) was 36.2%, the IC50 (EUFA30; Eufa30, 24 h of treatment) was 170 ± 21.1 µM and the IC50 (EUFA30; Eufa30, 48 h of treatment) was 200 ± 13.9 µM. The IC50 (U87 [6]; [10]) was 149 ± 9 µM, the IC50 (U87 [6]; [11]) was 182 ± 5.6 µM and the IC50 (HeLa [2]; 24 h of treatment) was 107 ± 10 µM. It also gave an IC50 (HeLa [2]; 48 h of treatment) of 108 ± 8.6 µM.
`COc1cc2c(cc1OC)C(=O)N(C)c1ccccc1C(=O)N2` [Compound 10g, 2,3-Dimethoxy-11-methyldibenzo[b,f][1,5]diazocine-6,12(5H,11H)-dione] showed a melting point of 271 to 272 °C.
With `COc1cc2c(cc1OC)C(=O)Nc1ccc(Br)cc1C(=O)N2` [Compound 10c, 8-Bromo-2,3-dimethoxydibenzo[b,f][1,5]diazocine-6,12(5H,11H)-dione] the melting point was 195 to 196 °C and the “cytotoxic effect (in words)” value [1] was “no cytotoxic effect in the concentration range tested”.
Work on `O=C1Nc2ccccc2C(=O)N(Cc2ccccc2)c2ccccc21` [Compound 10i, 5-Benzyldibenzo[b,f][1,5]diazocine-6,12(5H,11H)-dione] yielded a melting point of 212 to 213 °C.
For `O=C1Nc2ccccc2C(=O)N(Cc2ccc(Br)cc2)c2ccccc21` [Compound 10j, 5-(4-Bromobenzyl)dibenzo[b,f][1,5]diazocine-6,12(5H,11H)-dione], the IC50 (HEK293 [4]; [9]) was 192 ± 12.2 µM, the melting point was 222 to 223 °C and the “cytotoxic effect (in words)” value [1] was “showed a cytotoxic effect while maintaining the selectivity of action”. For the same molecule, the “cells in late apoptosis” value (HEK293 [3]; 24 h, control cells 0.4%) was 10%, the cells in necrosis (HEK293 [3]; 24 h) was 22% and the “cells in late apoptosis” value (HEK293 [3]; 48 h, control cells 0.5%) was 4.4%. The “cells in early apoptosis” value (HEK293 [3]; 48 h) was 4%, the “cells in late apoptosis” value (U87 [5]; 24 h) was 5.2% and the cells in necrosis (U87 [5]; 24 h) was 17.8%. For the same molecule, the “cells in necrotic phase” value (U87 [5]) was 28.1%, the IC50 (HeLa [2]; 24 h of treatment) was 138 ± 14.1 µM and the IC50 (HeLa [2]; 48 h of treatment) was 203 ± 4 µM.
`CCOC(=O)CN1C(=O)c2ccccc2N(C)C(=O)c2ccccc21` [Compound 10n, ethyl 2-(11-methyl-6,12-dioxo-11,12-dihydrodibenzo[b,f][1,5]diazocin-5(6H)-yl)acetate] gave a melting point of 125 to 126 °C.
`O=C1Nc2nccnc2C(=O)Nc2ccc(Cl)cc21` [Compound 10m, 8-Chloropyrazino[3,2-c][1,5]benzodiazocine-6,12(5H,11H)-dione] showed a melting point of 346 to 347 °C.
With `COc1cc2c(cc1OC)C(=S)Nc1ccc(Br)cc1C(=S)N2` [Compound 10p, 8-bromo-2,3-dimethoxydibenzo[b,f][1,5]diazocine-6,12(5H,11H)-dithione] the IC50 (HEK293 [4]; HEK293, 24 h of treatment) was 202 ± 7.9 µM, the IC50 (HEK293 [4]; [8]) was > 200 µM and the IC50 (HEK293 [4]; [9]) was 145 ± 8.5 µM. The melting point was 186 to 187 °C (dec.), the “cytotoxic effect (in words)” value [1] was “showed a cytotoxic effect while maintaining the selectivity of action” and the cells in necrosis (U87 [5]; 24 h) was 14%. The “cells in necrotic phase” value (U87 [5]) was 46.6%, the IC50 (EUFA30; Eufa30, 24 h of treatment) was > 200 µM and the IC50 (EUFA30; Eufa30, 48 h of treatment) was 158 ± 9.6 µM. For the same molecule, the IC50 (U87 [6]; [10]) was 170 µM, the IC50 (U87 [6]; U87, 24 h of treatment) was 172 ± 10 µM and the “percentage of necrotic cells” value (HeLa [7]; 24 h, non-treated control 21.1%) was 34.5%. For the same molecule, the “percentage of necrotic cells” value (HeLa [7]; 48 h, control cells 22.1%) was 53.4%, the IC50 (HeLa [2]; 24 h of treatment) was 115 ± 4.5 µM and the IC50 (HeLa [2]; 48 h of treatment) was 204 ± 6.5 µM.

Source: publication PMC7070320, “Unsymmetrically Substituted Dibenzo[b,f][1,5]-diazocine-6,12(5H,11H)dione—A Convenient Scaffold for Bioactive Molecule Design” (Molecules, 2020)
